Experimental findings from patent US10688093B2, “Methods, compositions, and uses of novel Fyn kinase inhibitors” (priority 2015, dated 2020) are described below.

Broadly, the IC50 is the concentration needed to halve the response being measured.

For the first assay, the target named is full-length recombinant human FYN A (Homo sapiens (Human), UniProt P06241). Nature of the assay: ADP-Glo Kinase Assay of FYN kinase inhibition. The class given is biochemical. As to conditions: primary screen, initial compounds. The essentials: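 GST-tagged full-length FYN A (baculovirus, Sf9) at 3 pg preincubated 30 min RT with compound (10-point 3-fold series from 10 μM) in Tris pH 7.5/MgCl2 buffer. 12-mer tyrosine peptide plus 12.5 pmol ATP added, 90 min RT; ADP measured by ADP-Glo luminescence, IC50 from dose-response.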
Chain of full-length recombinant human FYN A (P06241 whole entry): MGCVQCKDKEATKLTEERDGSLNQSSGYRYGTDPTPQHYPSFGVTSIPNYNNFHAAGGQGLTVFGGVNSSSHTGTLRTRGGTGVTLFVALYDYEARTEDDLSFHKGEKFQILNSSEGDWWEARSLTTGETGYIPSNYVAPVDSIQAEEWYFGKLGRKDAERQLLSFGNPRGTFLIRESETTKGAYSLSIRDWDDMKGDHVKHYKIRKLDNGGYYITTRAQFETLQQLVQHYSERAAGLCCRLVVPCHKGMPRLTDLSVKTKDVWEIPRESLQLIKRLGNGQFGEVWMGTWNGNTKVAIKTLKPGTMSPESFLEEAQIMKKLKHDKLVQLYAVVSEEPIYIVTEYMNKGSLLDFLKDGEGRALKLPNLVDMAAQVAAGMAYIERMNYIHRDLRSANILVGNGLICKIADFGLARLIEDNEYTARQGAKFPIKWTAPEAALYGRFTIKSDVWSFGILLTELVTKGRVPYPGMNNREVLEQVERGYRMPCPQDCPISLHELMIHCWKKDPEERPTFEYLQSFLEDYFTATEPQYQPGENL
Regarding `COc1ccc(Nc2ccn3ncc(-c4cccc(O)c4)c3n2)cn1` [294_0042_0284, 3-[5-[(6-methoxy-3-pyridyl)amino]pyrazolo[1,5-a]pyrimidin-3-yl]phenol], the IC50 came out at 3.39 µM.

`C[C@@H](c1ccccc1)n1c(=O)[nH]c2ncc(-c3cccc(C(=O)N(C)C)c3)nc21` [170_0148_0349, N,N-dimethyl-3-[2-oxo-3-[(1S)-1-phenylethyl]-1H-imidazo[4,5-b]pyrazin-5-yl]benzamide]: the IC50 came to 1.78 µM.

Turning to `COc1cccc(Cn2c(=O)[nH]c3ncc(-c4cc(OC)c(OC)c(OC)c4)nc32)c1` [170_4313_0087, 3-[(3-methoxyphenyl)methyl]-5-(3,4,5-trimethoxy-phenyl)-1H-imidazo[4,5-b]pyrazin-2-one], the IC50 was found to be 23.4 µM.

Consider `CNc1ccc2ncc(-c3ccsc3)n2n1` [Compound 437_0074, N-methyl-3-(3-thienyl)imidazo [1,2-b]pyridazin-6-amine], for which the half-maximal inhibitory concentration (IC50) worked out at 4.23 µM.

In the case of `COc1cc(-c2ccc3ncc(-c4cccc(NC(C)=O)c4)n3n2)ccc1O` [Compound 330, N-[3-[6-(4-hydroxy-3-methoxy-phenyl)imidazo [1,2-b]pyridazin-3-yl]phenyl] acetamide], the IC50 is 0.093 µM.

As to `CC(=O)c1cccc(-c2cnc3ccc(-c4cccnc4)nn23)c1` [Compound 427, 1-[3-[6-(3-pyridyl)imidazo [1,2-b]pyridazin-3-yl]phenyl] ethanone], the IC50 worked out at 1.23 µM.

With `OCc1ccc(-c2ccnc3[nH]nc(-c4ccc5c(c4)OCO5)c23)cc1` [Compound 523, [4-[3-(1,3-benzodioxol-5-yl)-1H-pyrazolo[3,4-b]pyridin-4-yl]phenyl] methanol], the IC50 was determined as 4.64 µM.

Turning to `CN(C)c1cccc(-c2cnc3sc(NC4CCC(O)CC4)nn23)c1` (stereo not drawn) [Compound 262, 4-[[5-[3-(dimethylamino)phenyl]imidazo [2,1-a] [1,3,4]thiadiazol-2-yl]amino] cyclohexanol], the half-inhibitory concentration (IC50) came out at 5.79 µM.

With `CS(=O)(=O)Nc1cccc(-c2cc(NC=O)c3ncc(-c4ccc(F)c(Cl)c4)n3c2)c1` [Compound 566, N-[3-(3-chloro-4-fluoro-phenyl)-6-[3-(methane-sulfonamido)phenyl]imidazo [1,2-a]pyridin-8-yl]formamide], the IC50 was 2.86 µM.

With `CC(=O)c1cccc(-c2cnc3ccc(NCc4cccs4)nn23)c1` [229_0146_4145, 1-[3-[6-(2-thienylmethyl-amino)imidazo[1,2-b]pyridazin-3-yl]phenyl] ethanone], the IC50 stood at 0.441 µM.

Take `CC(=O)Nc1cccc(-c2cnc3ccc(-c4ccoc4)nn23)c1` [Compound 335, N-[3-[6-(3-furyl)imidazo [1,2-b]pyridazin-3-yl]phenyl] acetamide]: the concentration for half-maximal inhibition (IC50) was 1.26 µM.

Take `c1ccc(-c2cn3c(-c4ccsc4)cnc3cn2)cc1` [388_0074_0061, 6-phenyl-3-(3-thienyl)imidazo [1,2-a]pyrazine]: the IC50 turned out to be 3.95 µM.

As to `COc1cncc(-c2ccc3ncc(-c4cccs4)n3n2)c1` [Compound 452, 6-(5-methoxy-3-pyridyl)-3-(2-thienyl)imidazo [1,2-b]pyridazine], the IC50 came out at 2.86 µM.

With `COc1cc(-c2cc(-c3ccc(OCCCN(C)C)nc3)cnc2N)cc(OC)c1OC` [382_0087_0002, 5-[6-[3-(dimethylamino)propoxy]-3-pyridyl]-3-(3,4,5-trimethoxy-phenyl)pyridin-2-amine], the IC50 was determined as 0.53 µM.

On to `CC(=O)Nc1cccc(-c2cnc3ccc(N[C@H](CO)C(C)C)nn23)c1` [229_0254_0081, N-[3-[6-[[(1S)-1-(hydroxymethyl)-2-methyl-propyl]amino]imidazo[1,2-b]pyridazin-3-yl]phenyl] acetamide], for which the concentration for half-maximal inhibition (IC50) is 0.801 µM.

Consider `O=C(NCCO)c1cccc(-c2cn3c(-c4ccsc4)cnc3cn2)c1` [Compound 224, N-(2-hydroxyethyl)-3-[3-(3-thienyl)imidazo [1,2-a]pyrazin-6-yl]benzamide], for which the IC50 came to 3.67 µM.

For `Cc1ccccc1CNc1nn2c(-c3cccnc3)cnc2s1` [Compound 589, N-(o-tolylmethyl)-5-(3-pyridyl) imidazo[2,1-b] [1,3,4]thiadiazol-2-amine], the half-maximal inhibitory concentration (IC50) came out at 1.08 µM.

Consider `OCc1ccc(-c2cn3c(-c4ccsc4)cnc3cn2)cc1` [388_0074_0285, [4-[3-(3-thienyl)imidazo [1,2-a]pyrazin-6-yl]phenyl] methanol], for which the IC50 was 2.35 µM.

For the compound `COc1cc(-c2n[nH]c3nccc(-c4ccc(NC(C)=O)cc4)c23)cc(OC)c1OC` [Compound 499, N-[4-[3-(3,4,5-trimethoxy-phenyl)-1H-pyrazolo[3,4-b]pyridin-4-yl]phenyl] acetamide], the IC50 stood at 2.02 µM.

For the compound `CN(C)C(=O)c1cccc(-c2cnc3sc(NCc4ccc(F)cc4)nn23)c1` [Compound 259, 3-[2-[(4-fluorophenyl)methylamino]imidazo[2,1-b] [1,3,4]thiadiazol-5-yl]-N,N-dimethyl-benzamide], the IC50 came out at 2.76 µM.

As for `COc1ccccc1-c1n[nH]c2nccc(-c3cccc(C(=O)NCCN(C)C)c3)c12` [Compound 507, N-(2-dimethylamino-ethyl)-3-[3-(2-methoxyphenyl)-1H-pyrazolo[3,4-b]pyridin-4-yl]benzamide], the IC50 stood at 4.85 µM.

In the case of `COc1ccccc1-c1ccc2ncc(-c3ccncc3)n2n1` [Compound 312, 6-(2-methoxyphenyl)-3-(4-pyridyl)imidazo [1,2-b]pyridazine], the IC50 was 0.585 µM.

On to `CN(C)c1cccc(-c2cc(-c3cccc(C(N)=O)c3)cnc2N)c1` [382_0135_0347, 3-[6-amino-5-[3-(dimethylamino)phenyl]-3-pyridyl] benzamide], for which the IC50 is 3.52 µM.

As for `CN(C)C(=O)c1cccc(-c2cnc3sc(NCc4ccccc4)nn23)c1` [Compound 286, 3-[2-(benzylamino)imidazo[2,1-d] [1,3,4]thiadiazol-5-yl]-N,N-dimethyl-benzamide], the IC50 came out at 1.51 µM.

Regarding `OCc1ccc(-c2ccnc3[nH]nc(-c4ccccc4)c23)cc1` [Compound 503, [4-(3-phenyl-1H-pyrazolo[3,4-b]pyridin-4-yl)phenyl] methanol], the IC50 is 7.11 µM.

In the case of `COc1ccc(-c2cnc3ccc(NCc4cccc(Cl)c4)nn23)cc1` [229_0223_0280, N-[(3-chlorophenyl)methyl]-3-(4-methoxyphenyl) imidazo[1,2-b]pyridazin-6-amine], the IC50 is 10.7 µM.

`COc1cc(-c2cnc3sc(NCC4CCOCC4)nn23)ccc1O` [Compound 543, 2-methoxy-4-[2-(tetrahydropyran-4-ylmethyl-amino)imidazo [2,1-b][1,3,4]thiadiazo-5-yl]phenol]: the IC50 worked out at 2.16 µM.

The same assay, now with this note: secondary screen, re-synthesized and expanded compounds.
Consider `COc1cncc(-c2cnc3sc(NCc4cccs4)nn23)c1` [BF000714968, 5-(5-methoxy-3-pyridyl)-N-(2-thienyl-methyl)-imidazo[2,1-b][1,3,4]-thiadiazol-2-amine], for which the IC50 is 0.437 µM.

As for `COc1cc(-c2cc(-c3cccc(NS(C)(=O)=O)c3)cnc2N)cc(OC)c1OC` [BF000312545, N-[3-[6-amino-5-(3,4,5-trimethoxy-phenyl)-3-pyridyl]-phenyl]-methane-sulfonamide], the IC50 came to 0.562 µM.

As for `CN(C)C(=O)c1cccc(-c2cnc3sc(NCc4ccccc4)nn23)c1` [BF000714847, 3-[2-(benzyl-amino)-imidazo[2,1-b][1,3,4]-thiadiazol-5-yl]-N,N-dimethyl-benzamide], the IC50 was found to be 1.23 µM.
